By EC50 is commonly meant the concentration that produces a half-maximal response.

Molecules are shown by their SMILES. Like-named read-outs stand apart in the source and are kept apart here.

Data set [1] concerns the target T1, adiponectin receptor 1 (AdipoR1) (Homo sapiens, UniProt Q96A54).
T1 sequence (Q96A54 1-375): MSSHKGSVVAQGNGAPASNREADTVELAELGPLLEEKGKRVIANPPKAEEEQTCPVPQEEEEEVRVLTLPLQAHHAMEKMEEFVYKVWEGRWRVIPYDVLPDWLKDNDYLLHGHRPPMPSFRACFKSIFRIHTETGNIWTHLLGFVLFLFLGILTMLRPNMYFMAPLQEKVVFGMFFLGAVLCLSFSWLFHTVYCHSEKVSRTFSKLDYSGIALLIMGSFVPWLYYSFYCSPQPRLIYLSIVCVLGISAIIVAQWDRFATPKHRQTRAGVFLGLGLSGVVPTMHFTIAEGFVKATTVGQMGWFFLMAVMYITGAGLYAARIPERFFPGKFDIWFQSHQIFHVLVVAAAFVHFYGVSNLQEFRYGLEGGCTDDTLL
Particulars: Dib et al. 2017; cited from earlier work.

Data set [2] addresses T2, adiponectin receptor 2 (AdipoR2) (Homo sapiens, UniProt Q86V24).
T2 sequence (Q86V24 1-386): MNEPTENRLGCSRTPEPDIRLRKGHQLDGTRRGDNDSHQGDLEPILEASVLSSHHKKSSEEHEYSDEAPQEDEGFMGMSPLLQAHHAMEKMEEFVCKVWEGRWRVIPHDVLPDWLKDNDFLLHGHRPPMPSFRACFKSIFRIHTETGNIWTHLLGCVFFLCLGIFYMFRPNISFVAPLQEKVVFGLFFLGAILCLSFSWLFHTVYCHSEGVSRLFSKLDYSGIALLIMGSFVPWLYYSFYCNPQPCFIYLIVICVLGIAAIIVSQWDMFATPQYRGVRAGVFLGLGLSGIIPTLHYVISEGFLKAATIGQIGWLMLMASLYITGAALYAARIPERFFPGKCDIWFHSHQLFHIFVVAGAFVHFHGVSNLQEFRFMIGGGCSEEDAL
Particulars: Dib et al. 2017; cited from earlier work.

The subject of the next data set is LH. The experiment in a line: LH concentration in plasma of female rats at proestrous. The class given is in vivo, rat. Particulars: female Han-Wistar rats, 50 or 100 mg/kg twice a day for one estrous cycle, d3 proestrous 7 pm. From the text:
For this, the cycle phase of untreated naive female Han-Wistar rats was staged by vaginal smears. Rat plasma was taken at different days and time points of the cycle (d3=proestrous, d4=estrous), and LH in plasma determined by a rat pituitary magnetic bead panel (Milliplex, Cat No RPTMAG-86K). LH peak could be detected at d3 at 7 pm in the afternoon as described previously (Smith et al. 1975). Thus, this time point is well suited for measurement of the effect of AdipoR1 and/or AdipoR2 receptors activation by AdipoRon. […] For this, the cycle phase of untreated naive female Han-Wistar rats was staged by vaginal smears. Rats were treated for one estrous cycle, beginning with metestrous, with 50 mg/kg or 100 mg/kg of Adiporon in a suitable vehicle twice a day. Rat plasma was taken at d3=proestrous at 7 pm, and LH was determined by a rat pituitary magnetic bead panel (Milliplex Cat No RPTMAG-86K).

In data set [3] the test system is steroid synthesis in db/db mice. The experiment in a line: Plasma AUC of testosterone and progesterone in female db/db mice. The class given is in vivo. Particulars: single po dose 50 and 100 mg/kg, significant at 100 mg/kg (p<0.1). The protocol:
Female db/db mice, which were untreated, or treated with Adiporon at 50 mg/kg and 100 mg/kg with a single po dose, were analysed. Blood was taken at 0.5, 1, 2, 4, and 24 hours, and plasma concentrations of progesterone (ibl/Tecan Order No RE52231, Hamburg) and testosterone (Demeditec Order No DEV9911, Kiel) were determined by commercial ELISAs. Area under the curve (AUC) of total steroids was determined by an algorithm according to Gagnon et al. (1998) by GraphPadPrism software. […] The effects are significant at the higher dosage of AdipoRon of 100 mg/kg after a single application (* t-test AUC versus 100 mg/kg Adiporon (n=5 time points), double sided; p<0.1).

Another data set deals with Cyp17a1 mRNA. The experiment in a line: Cyp17a1 mRNA expression in ovaries of db/db mice. Particulars: 50 mg/kg single po dose, 0.5-24 h. In kind it is in vivo. The protocol: (§1) FIGS. 6A and 6B Lhcgr mRNA expression (6A) and Cyp17a1 mRNA expression (6B) in ovaries of untreated db/db mice (black column) or db/db mice treated with 50 mg/kg Adiporon (grey column) is shown (n=3 biological replicates; error bars show SD). Expression of Cyp17a1 and Lhrgr mRNA in ovaries of adult female db/db mice were analyzed for untreated mice or mice treated with 50 mg/kg Adiporon as a single po dose given at t=0 h. At 0.5 h, 1 h, 2 h, 4 h, 24 h, mice were killed, and ovaries were taken, mRNA isolated (Qiagen, RNeasy Mini kit #74106) and mRNA quantified by Q-PCR (ThermoFisher Scientific Assay on demand #Mm00484040_ml for Cyp17a1 and Mm00442931_ml for Lhcgr).

Data set [4] has as its system DHEA-induced PCOS Model in rats. Kind of data set: DHEA-induced PCOS Model in rats. The class given is in vivo, rat. The note with it: 60 mg/kg/d DHEA sc 20 days, 50 mg/kg/d Adiporon last 10 days. From the text:
FIG. 8: Plasma testosterone concentration [nM] […] An autostimulation of adiponectin by stimulation of AdipoR1 and/or AdipoR2 has been described before and validates the activity of AdipoRon on the AdipoR1 and/or AdipoR2 receptors (Jardé et al. 2009).

The test system of the next data set is tgLH mice. Kind of data set: Oral glucose tolerance test in transgenic mice overexpressing LH (tgLH). The note with it: 100 mg/kg/d for four weeks, 2 g/kg glucose after 6 h fasting. The class given is in vivo. The protocol:
9A: Plasma insulin concentration [mg/L] in wt-mice (light grey column) and untreated tgLH mice (dark grey column) or tgLH mice treated with 100 mg/kg Adiporon (black column) is shown. 9B: Insulin concentrations [ng/mL] during OGTT in wt (left diagram) and Adipor1−/−Adipor2−/−tg mice (right diagram) treated with vehicle (open circle) or treated with 100 mg/kg (circle) are shown.
Increased LH secretion is causal for the development of PCOS in women, and tgLH overexpression in mice recapitulates the human PCOS phenotype in women. For this experiment, an oral glucose tolerance test was performed in control, transgenic LH overexpressing mice, and tgLH mice treated with Adiporon at 100 mg/kg/d for four weeks. To determine insulin sensitivity, plasma was taken at 15 min after giving an oral glucose gavage of 2 g/kg after fasting of the mice for 6 h in the last two days of the experiment (Andrikopoulos et al. 2008).

Data set [5] is described as follows: Single dose exposure experiment in db/db mice (unbound plasma concentration, LC/MS). The class given is in vivo. The note with it: 100 mg/kg p.o. single dose, adult female db/db mice, 0.5 h, 1 h, 4 h. The protocol:
At t=0, a dose of 50 mg/kg (circle) or 100 mg/kg (squares) was given p.o. to adult female db/db mice. At each time point (0.5 h, 1 h, and 4 h) three mice were killed and the plasma concentration of unbound AdipoRon was determined by LC/MS.

The test system of data set [6] is Cyp11b1 mRNA in Y-1 cells. The experiment in a line: Cyp11b1 mRNA induction by ACTH in adrenal cell line Y-1. Particulars: for EC50: Mus musculus. The class given is cell-based, mouse. The protocol: (§2) Y-1 cells (epithelial cells of mouse adrenal gland origin) were cultivated in F12-K medium with 10% FBS and 15% donor horse serum. Cells were treated with 10 nM ACTH, and 30 min later the Adipor1/2 agonist AdipoRon was added in a final concentration of 0.1 μM, 1 μM, 10 μM for two and a half hours. Cells were harvested, mRNA isolated and […] and Star mRNA quantified relative to β-actin (Actb) mRNA. Hatched column: vehicle control, grey column: 10 nM ACTH, white columns: 10 nM ACTH+0.1 μM, 1 μM, or 10 μM AdipoRon.
(§3) ACTH is a hormone of the Hypothalamic-pituitary-adrenal axis and stimulates the expression of Steroidogenic acute regulatory protein (StAR) and […] ([…]), which then can lead to cortisol production and, as a consequence, insulin resistance. Insulin insensitivity is observed in women diagnosed with PCOS. […] EC50 for AdipoRon for this effect is around 10 μM for StAR, and around 0.1 to 1 μM for Cyp11b1, but seems to be saturated at higher concentrations.

The next data set has as its system Lhcgr mRNA. Kind of data set: Lhcgr mRNA expression in ovaries of db/db mice. The class given is in vivo. The note with it: 50 mg/kg single po dose, 0.5-24 h. The protocol: as §1
Data set [7] relates to wt and Adipor1−/−Adipor2−/− mice. The note with it: FIG. 9B, cited from earlier work.
Another data set deals with StAR mRNA in Y-1 cells. The experiment in a line: StAR mRNA induction by ACTH in adrenal cell line Y-1. The class given is cell-based, mouse. The protocol:
as §2, §3

Turning to `COc1ccc(CN2CCN(C(=O)CCNC(=O)c3ccc(C(C)(C)C)cc3)CC2)cc1` [Compound 112254, 4-(tert-Butyl)-N-(3-(4-(4-methoxybenzyl)piperazin-1-yl)-3-oxopropyl)benzamide], the “binding to AdipoR1” value in [1] was “binds to AdipoR1 and AdipoR2”. Besides, in data set [2], the “binding to AdipoR2” value is “binds to AdipoR1 and AdipoR2”.
Consider `O=C(COc1ccc(C(=O)c2ccccc2)cc1)NC1CCN(Cc2ccccc2)CC1` [AdipoRon, 2-(4-Benzoylphenoxy)-N-(1-benzylpiperidin-4-yl)acetamide], for which the “LH concentration in plasma” value in the data set on LH is on record as “dose-dependently reduces the induction of LH”. In data set [3], the “plasma AUC of progesterone” value is on record as “increases Progesterone plasma concentration”. The “plasma AUC of testosterone” value in data set [3] is reported as “reduces Testosterone plasma concentration”. The “Cyp17a1 mRNA expression in ovaries” value in the data set on Cyp17a1 mRNA is given as “decreases the expression”. The plasma adiponectin concentration entry in data set [4] was “normalizes plasma adiponectin”. Further, the Plasma testosterone concentration result in data set [4] (p<0.05) is listed as “significantly reduces the increase in Testosterone”. In the data set with tgLH mice, the “insulin sensitivity (plasma insulin 15 min after oral glucose)” value was “insulin sensitivity is increased”. Also, the “plasma concentration of unbound AdipoRon versus EC50” value in [5] is given as “reaches the EC50 value”. Moreover, the EC50 in data set [6] (Y-1 cell, as restated for FIG. 5 (see FIG. 2), read-out: EC50 value for effects in Y-1 cell) is approximately 100 nM; in data set [6] (Y-1 cells, 10 nM ACTH, AdipoRon two and a half hours, FIG. 2B, seems saturated at higher concentrations, read-out: EC50 for reduction of the induction of Cyp11b1 by ACTH), 100 to 1000 nM; with StAR mRNA in Y-1 cells (Mus musculus, 10 nM ACTH, AdipoRon two and a half hours, FIG. 2A, read-out: EC50 for reduction of the induction of StAR by ACTH), approximately 10 µM. The “effect on induction of Cyp11b1 mRNA by ACTH” value in [6] (Y-1 cells, 10 nM ACTH + 0.1, 1 or 10 μM) is on record as “dose-dependently reduces the induction”. Further, the “Lhcgr (LH receptor) mRNA expression in ovaries” value with Lhcgr mRNA is given as “decreases the expression”. In addition, the “Insulin concentrations during OGTT, Adipor1−/−Adipor2−/− mice” value in data set [7] (mice double negative for Adiponectin Receptors 1 and 2, 100 mg/kg) was “no effect on plasma insulin”. Further, the “Insulin concentrations during OGTT, wild-type mice” value in [7] (wt mice, 100 mg/kg) was “comparable data”. Also, the “effect on induction of StAR mRNA by ACTH” value in the data set with StAR mRNA in Y-1 cells (10 nM ACTH + 0.1, 1 or 10 μM) is recorded as “dose-dependently reduces the induction”.
